Experimental data reported in PMC6627331, “Identification of Small Molecule Inhibitors of Staphylococcus aureus RnpA” (Antibiotics, 2019).
Values after ≈ are worked out from the molar mass of the structure shown.

tested on: S. aureus UAMS-1; assay: Minimum inhibitory concentration (MIC) testing; type: cell-based, Staphylococcus aureus; details: Staphylococcus aureus, UAMS1, 16 h, S. aureus UAMS-1, 16 h in MHB; read-out: MIC
Experimental: Minimum inhibitory concentration (MIC) testing was performed using to Clinical & Laboratory Standards Institute (CLSI) guidelines. Accordingly, individual wells of a 96-well microtiter plate were inoculated with 10^4 colony forming units (CFU) of S. aureus UAMS-1 containing two-fold increasing concentrations (0 to 256 μg·mL^−1) of the indicated antibiotic or putative RnpA inhibitor compound, and incubated at 37 °C for 16 h in MHB. The MIC was defined as the lowest concentration of compound in which there was no visible bacterial growth in the well.

Row | Compound | MIC [µg/mL]
1 | Cc1ccc(NC(=O)N2CCCCC2C)cc1Cl (stereo not drawn) [JC2c] | > 256
2 | CCN1CCN(C(=O)Nc2cc(Cl)cc(Cl)c2)CC1 [JC7] | 8 (≈ 26.5 µM)
3 | C/C(=C\C(=O)OCCCCCCCCC(=O)O)C[C@@H]1OC[C@H](C[C@@H]2O[C@H]2[C@@H](C)[C@H](C)O)[C@@H](O)[C@H]1O [mupirocin, reference compound] | 0.125 (≈ 0.25 µM)
4 | O=C(Nc1cccc(Cl)c1)N1CCCCCC1 [JC5b] | > 256
5 | O=C(Nc1cc(Cl)cc(Cl)c1)N1CCCCCC1 [JC5] | 128 (≈ 446 µM)
6 | CN1CCN(C(=O)Nc2cc(Cl)cc(Cl)c2)CC1 [JC6] | 8 (≈ 27.8 µM)

Next, values leading:

Row | MIC [µg/mL] | Compound
7 | 0.25 to 1 (≈ 0.6 to 2.4 µM) | O=C(Nc1ccccc1Cl)c1c(NC(=O)C(F)(F)F)sc2c1CCCCC2 [JR2]
8 | 0.25 to 1 (≈ 0.6 to 2.4 µM) | O=C(Nc1cccc(Cl)c1)c1c(NC(=O)C(F)(F)F)sc2c1CCCCC2 [JR3]

same assay, conditions: Staphylococcus aureus, UAMS1, SAR figures; S. aureus UAMS-1; read-out: MIC

Row | Compound | MIC [µg/mL]
9 | CC1CN(C(=O)Nc2cc(Cl)cc(Cl)c2)CC(C)O1 (stereo not drawn) [JC9] | 32 (≈ 106 µM)
10 | Cc1ccc(NC(=O)N2CCCCC2C)cc1Cl (stereo not drawn) [JC2c] | > 256
11 | CCN1CCN(C(=O)Nc2cc(Cl)cc(Cl)c2)CC1 [JC7] | 8 (≈ 26.5 µM)
12 | O=C(Nc1cccc(Cl)c1)N1CCCCCC1 [JC5b] | > 256
13 | O=C(Nc1cc(Cl)cc(Cl)c1)N1CCCCCC1 [JC5] | 128 (≈ 446 µM)
14 | CN1CCN(C(=O)Nc2cc(Cl)cc(Cl)c2)CC1 [JC6] | 8 (≈ 27.8 µM)

Second part, the compound after the results:

Row | MIC [µg/mL] | Compound
15 | 0.5 (≈ 1.24 µM) | O=C(Nc1cccc(Cl)c1)c1c(NC(=O)C(F)(F)F)sc2c1CCCC2 [JR3b]
16 | 0.5 (≈ 1.2 µM) | O=C(Nc1ccccc1Cl)c1c(NC(=O)C(F)(F)F)sc2c1CCCCC2 [JR2]
17 | 0.25 (≈ 0.6 µM) | O=C(Nc1cccc(Cl)c1)c1c(NC(=O)C(F)(F)F)sc2c1CCCCC2 [JR3]

same assay, conditions: Table S1, mupirocin synergy screening initial hits

Row | Compound | MIC [µg/mL]
18 | c1ccc(Nc2nc(-c3ccccn3)cs2)nc1 [compound 5625000] | 1.59
19 | Cc1cccc(/C=C/c2ccc3cccc(O)c3n2)c1O [compound 6634438] | 10.40
20 | O=S(=O)(Nc1cccc2cccnc12)c1ccccc1 [compound 5175130] | 14.22

target: T1, S. aureus RnpA (Staphylococcus aureus, UniProt P0A0H5); assay: RnpA-mediated in vitro spa mRNA degradation assay; type: biochemical; details: SAR figures, read-out: dIC50 = degradation IC50
T1 construct: hexahistidine (His6) (N); made in house; host or cells: E. coli BL21 (DE3), plasmid pEXP5-nt
T1 sequence (P0A0H5 1-117): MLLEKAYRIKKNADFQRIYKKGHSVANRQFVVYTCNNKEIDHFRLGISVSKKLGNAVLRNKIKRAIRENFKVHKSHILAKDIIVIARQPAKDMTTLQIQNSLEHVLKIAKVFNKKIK
Experimental: RnpA-mediated RNA degradation assays were performed as previously described. Briefly, 1 pmol of spa mRNA was incubated with 5 pmol RnpA at 37 °C for 30 min in reaction buffer (50 mM Tris-HCl pH 8.0, 2 mM NaCl, 2 mM MgCl2) in the absence or presence of the indicated compound (≤500 µM). The inhibitory effects of the test compounds were calculated using Biorad ImageLab densitometry software to measure the signal intensity of the spa band in the negative control (spa alone), positive control (RnpA + spa + DMSO), and experimental samples (RnpA + spa + test compound) separated on a 1.2% formaldehyde-agarose gel. Background signal from the positive control sample sometimes resulted due to incomplete degradation of transcripts. Thus, the signal intensity of the positive control was taken into account when calculating the percent inhibition. The raw signals from the positive (+RnpA) and negative (-RnpA) controls were converted into percentage, by normalizing the positive control (+RnpA) signal to 0% RnpA inhibition and the negative control (-RnpA) to 100% RnpA inhibition. Similarly, the raw signals from the test compounds were reported as percent RnpA inhibition using the following equation: [(experimental−positive control)/(negative control−positive control)] × 100. […] To assess IC50, % RnpA degradation inhibition was plotted against compound concentration; a linear best fit equation was generated and utilized to calculate the IC50.

Row | Compound | IC50 [µM]
21 | Cc1ccc(NC(=O)N2CCCCC2C)cc1Cl (stereo not drawn) [JC2c] | > 500
22 | CCN1CCN(C(=O)Nc2cc(Cl)cc(Cl)c2)CC1 [JC7] | > 500
23 | O=C(Nc1cccc(Cl)c1)N1CCCCCC1 [JC5b] | > 500
24 | CN1CCN(C(=O)Nc2cc(Cl)cc(Cl)c2)CC1 [JC6] | > 500

Second part, the compound after the results:

Row | IC50 [µM] | Compound
25 | 35 | O=C(Nc1cccc(Cl)c1)c1c(NC(=O)C(F)(F)F)sc2c1CCCC2 [JR3b]
26 | 63 | O=C(Nc1ccccc1)c1c(NC(=O)C(F)(F)F)sc2c1CCCCC2 [JR4]
27 | 100 | O=C(Nc1ccccc1Cl)c1c(NC(=O)C(F)(F)F)sc2c1CCCCC2 [JR2]
28 | 25 | O=C(Nc1cccc(Cl)c1)c1c(NC(=O)C(F)(F)F)sc2c1CCCCC2 [JR3]

same assay, conditions: read-out: Degradation IC50

Row | IC50 [µM] | Compound
29 | > 500 | CC1CN(C(=O)Nc2cc(Cl)cc(Cl)c2)CC(C)O1 (stereo not drawn) [JC9]
30 | ≥ 450 | CCN1CCN(C(=O)Nc2cc(Cl)cc(Cl)c2)CC1 [JC7]
31 | 200 | O=C(Nc1cc(Cl)cc(Cl)c1)N1CCCCCC1 [JC5]
32 | ≥ 450 | CN1CCN(C(=O)Nc2cc(Cl)cc(Cl)c2)CC1 [JC6]

tested on: HepG2 cells; assay: MTT human cell cytotoxicity testing; type: cell-based; details: SAR figures; 4× MIC exposure for 24 h
Experimental: Human HepG2 hepatocytes were seeded in individual wells of a 96-well cell-culture treated microtiter plate at a concentration of 1 × 10^5 cells per well and incubated in Dulbecco’s Modified Eagle Medium (DMEM) supplemented with 10% fetal bovine serum at 37 °C with 5% carbon dioxide overnight. Cells were then treated with DMSO (negative control) or the indicated agent for 24 h. MTT Cell Proliferation Assay Kits were used to assess viability according to the manufacturer’s recommendations (American Type Culture Collection; Manassas, VA, USA).

Row | Compound | MTT = % HepG2 cell survival [%]
33 | O=C(Nc1cccc(Cl)c1)c1c(NC(=O)C(F)(F)F)sc2c1CCCC2 [JR3b] | 103.7
34 | CC1CN(C(=O)Nc2cc(Cl)cc(Cl)c2)CC(C)O1 (stereo not drawn) [JC9] | 82.5
35 | O=C(Nc1ccccc1Cl)c1c(NC(=O)C(F)(F)F)sc2c1CCCCC2 [JR2] | 85.3
36 | O=C(Nc1cccc(Cl)c1)c1c(NC(=O)C(F)(F)F)sc2c1CCCCC2 [JR3] | 90.4
37 | CCN1CCN(C(=O)Nc2cc(Cl)cc(Cl)c2)CC1 [JC7] | 75.7
38 | O=C(Nc1cc(Cl)cc(Cl)c1)N1CCCCCC1 [JC5] | 65.3
39 | CN1CCN(C(=O)Nc2cc(Cl)cc(Cl)c2)CC1 [JC6] | 61.6

target: T2, S. aureus RNase P (RnpA + rnpB) (Staphylococcus aureus, UniProt P0A0H5); assay: RnpA-dependent RNase P in vitro ptRNA^Tyr processing assay; type: biochemical; details: SAR figures; in vitro ptRNA^Tyr processing; read-out: pIC50 = processing IC50 (converted)
T2 construct: hexahistidine (His6) (N); made in house; host or cells: E. coli BL21 (DE3), plasmid pEXP5-nt
T2 sequence (P0A0H5 1-117): T1 sequence (P0A0H5 1-117)
Experimental: S. aureus RNase P activity assays were performed according to conditions described previously. Briefly, ptRNA^Tyr and rnpB RNA species were first denatured by heating to 95 °C for 5 min then slow cooled to room temperature. RNase P was reconstituted by mixing an equal molar ratio of rnpB and RnpA for 15 min at 37 °C. Precursor tRNA processing inhibition reactions were performed by mixing 1.25 pmol of reconstituted RNase P (RnpA + rnpB) with an equal volume of 2× low salt buffer (50 mM Tris-HCl pH 8.0, 5 mM MgCl2) in the presence of DMSO (negative control) or the indicated compound (≤500 µM) and incubated for 5 min at 37 °C. 5 pmol ptRNA^Tyr was added and the mixture was incubated at 37 °C 15 min. Reactions were stopped by adding 2× RNA loading dye and heating at 65 °C for 10 min. Each sample was electrophoresed in a 7 M urea/8% polyacrylamide gel then stained with ethidium bromide. The Biorad EZ Gel Doc imaging system was used to visualize the RNA and relative abundance of the mature tRNA^Tyr band (% processing) in the negative control or in samples containing the indicated compounds and analyzed using Biorad Image Lab densitometry software. The inhibitory activity of the indicated compounds were calculated as a % inhibition using the following equation: […].
To assess IC50, % RNase P processing inhibition was plotted against compound concentration and a linear best fit equation was generated to calculate the IC50.

Row | Compound | IC50 [µM]
40 | Cc1ccc(NC(=O)N2CCCCC2C)cc1Cl (stereo not drawn) [JC2c] | > 500
41 | CCN1CCN(C(=O)Nc2cc(Cl)cc(Cl)c2)CC1 [JC7] | > 500
42 | O=C(Nc1cccc(Cl)c1)N1CCCCCC1 [JC5b] | > 500
43 | CN1CCN(C(=O)Nc2cc(Cl)cc(Cl)c2)CC1 [JC6] | > 500

Next, values leading:

Row | IC50 [µM] | Compound
44 | 6 | O=C(Nc1cccc(Cl)c1)c1c(NC(=O)C(F)(F)F)sc2c1CCCC2 [JR3b]
45 | 10 | O=C(Nc1ccccc1)c1c(NC(=O)C(F)(F)F)sc2c1CCCCC2 [JR4]
46 | 2 | O=C(Nc1ccccc1Cl)c1c(NC(=O)C(F)(F)F)sc2c1CCCCC2 [JR2]
47 | 7 | O=C(Nc1cccc(Cl)c1)c1c(NC(=O)C(F)(F)F)sc2c1CCCCC2 [JR3]

same assay, conditions: Table S1, mupirocin synergy screening initial hits; read-out: processing IC50

Row | Compound | IC50 [µM]
48 | c1ccc(Nc2nc(-c3ccccn3)cs2)nc1 [compound 5625000] | > 500
49 | Cc1cccc(/C=C/c2ccc3cccc(O)c3n2)c1O [compound 6634438] | < 62.5
50 | O=S(=O)(Nc1cccc2cccnc12)c1ccccc1 [compound 5175130] | > 500

same assay, conditions: in vitro ptRNA^Tyr processing; read-out: Processing IC50

Row | IC50 [µM] | Compound
51 | > 500 | CC1CN(C(=O)Nc2cc(Cl)cc(Cl)c2)CC(C)O1 (stereo not drawn) [JC9]
52 | ≥ 450 | CCN1CCN(C(=O)Nc2cc(Cl)cc(Cl)c2)CC1 [JC7]
53 | 225 | O=C(Nc1cc(Cl)cc(Cl)c1)N1CCCCCC1 [JC5]
54 | ≥ 450 | CN1CCN(C(=O)Nc2cc(Cl)cc(Cl)c2)CC1 [JC6]
